Test results as given in patent US20240099214A1, “PLANT DEFENCE GENE EXPRESSION” (UPL Corporation Limited, priority 2021, published 2024).

Legend:
[1] = tested on: Nbs-Irr resistance protein (gene 3, Solyc05g009760.1); experiment: qRT-PCR expression of gene 3 in tomato leaves; format: in vivo, Tomato ecotype corbarino; parameters: key: relative expression normalized to a-tubulin housekeeping gene
Protocol: (§1) Tomato ecotype “corbarino” reported to be susceptible to TSWV infection was used in the experiment. Plants were grown in pots in a climatic chamber with a photoperiod of 16/8 hour at 25° C.
(§2) The viral strain (TSWV PV PV-0393) was utilized in the experiment. The virus was mechanically inoculated and propagated on tomato “corbarino”. The inoculum was prepared in an ice-cooled mortar grounding 1 gr of infected tomato tissue in 10 ml of Na-phosphate buffer 0.01M. The fresh prepared inoculum was stored in ice before use. Tomato plants at BBCH16 were dusted with Carborundum 600 mesh and selected leaves were rubbed with some droplets of inoculum. After 5 min. plants were sprayed with sterile water to remove the excess of inoculum and preserve the cell turgor.
(§3) Four treatments were compared: i) Mock inoculated; ii) TSWV; iii) 0.25% Laminarin; iv) 0.25% Laminarin+TSWV. In the last treatment the virus was inoculated 24 hrs after the laminarin application.
(§4) Total RNA was extracted from systemic infected tomato leaves by using the Quick-RNA Plant Kit (Zymo Research) following the manufacturer instructions. The extractions were carried out using three plants after 12 h, 24 h, 48 h, 72 h, 7 days after inoculation. Leaves were instantly frozen in liquid nitrogen after cutting to avoid any deterioration of the sample as well as any defense reaction. The RNA concentration was quantified by measuring the absorbance at 260 nm using a Nanodrop 2000 (Thermofisher). The purity of all of the RNA samples was assessed at an absorbance ratio of OD260/280 and OD260/230, while its structural integrity was checked by agarose gel electrophoresis. Only high-quality RNA with OD 260/280 and OD 260/230>2 was used for subsequent steps. Single-stranded cDNA was synthesized from 1 μg of total RNA using an iScript™ Select cDNA Synthesis Kit and random hexamers as primers (Bio-Rad, Milan, Italy), according to the manufacturer's instructions. Three biological replicates were created from the 3 leaves collected to test 15 genes. Alpha tubulin was used as reference gene.
(§5) qPCR reactions were performed with BioRad (Applied Biosystems, Foster City, CA, USA) using SYBR R Green. Each reaction was performed in 20 μl containing 10 μl of 2× Power SYBR Green PCR Master Mix (Life Technologies), 0.2-0.3 μM primers and cDNA samples diluted 1:20. Each qPCR reaction was performed in triplicate. Reactions were run using the cycling parameter described previously (Reid et al., 2006) and the qPCR data were analyzed by the Ct method (Pfaffl, 2001). In order to analyze the qPCR data, a-tubulin gene was used as housekeeping to determine the relative expression level of the other genes analyzed in this work. For the determination of qPCR efficiency of each primer pairs, a standard curve was performed using the following cDNA dilutions: 1:4, 1:16, 1:64; 1:256 and 1:1024. Every measurement was made in triplicate. The corresponding qPCR efficiencies (E) were calculated for every primer pair with the software 7300 System SDS software (Applied Biosystems, Foster City, CA, USA) according to the equation E=(10−1/slope−1)×100 (Rutledge and Stewart, 2008).
(§6) The significance of the differences between the gene expressions levels were compared by one-way ANOVA (p=0.01) and the means were separated by Tukey post-hoc test using SPSS ver.26 ([…]).

[2] = tested on: AP2-like-ethylene-responsive transcription factor (gene 4, Solyc11g072600.1); experiment: qRT-PCR expression of gene 4 in tomato leaves; format: in vivo, Tomato ecotype corbarino; parameters: key: relative expression normalized to a-tubulin housekeeping gene
Protocol: as §1, §2, §3, §4, §5, §6

Work on laminarin yielded an RQ1 ([1]; 12 hr, Laminarin + virus) of 11.935, an RQ2 ([1]; 12 hr, Laminarin + virus) of 12.286 and an RQ3 ([1]; 12 hr, Laminarin + virus) of 0.9487. It also gave an RQ mean ([1]; 12 hr, Laminarin + virus) of 11.236, an RQ1 ([1]; 12 hr, Laminarin alone) of 10.545 and an RQ2 ([1]; 12 hr, Laminarin alone) of 10.498. The RQ3 ([1]; 12 hr, Laminarin alone) was 0.8329, the RQ mean ([1]; 12 hr, Laminarin alone) was 0.9791 and the RQ1 ([1]; 24 hr, Laminarin + virus) was 11.167. The RQ2 ([1]; 24 hr, Laminarin + virus) was 10.509, the RQ3 ([1]; 24 hr, Laminarin + virus) was 13.936 and the RQ mean ([1]; 24 hr, Laminarin + virus) was 11.871. The RQ1 ([1]; 24 hr, Laminarin alone) was 12.229, the RQ2 ([1]; 24 hr, Laminarin alone) was 13.976 and the RQ3 ([1]; 24 hr, Laminarin alone) was 11.514. The RQ mean ([1]; 24 hr, Laminarin alone) was 12.573, the RQ1 ([1]; 48 hr, Laminarin + virus) was 12.976 and the RQ2 ([1]; 48 hr, Laminarin + virus) was 26.960. The RQ3 ([1]; 48 hr, Laminarin + virus) was 15.208, the RQ mean ([1]; 48 hr, Laminarin + virus) was 18.381 and the RQ1 ([1]; 48 hr, Laminarin alone) was 27.419. For the same substance, the RQ2 ([1]; 48 hr, Laminarin alone) was 26.255, the RQ3 ([1]; 48 hr, Laminarin alone) was 14.098 and the RQ mean ([1]; 48 hr, Laminarin alone) was 22.591. It also gave an RQ1 ([1]; 72 hr, Laminarin + virus) of 47.747, an RQ2 ([1]; 72 hr, Laminarin + virus) of 48.776 and an RQ3 ([1]; 72 hr, Laminarin + virus) of 16.860. The RQ mean ([1]; 72 hr, Laminarin + virus) was 37.794, the RQ1 ([1]; 72 hr, Laminarin alone) was 19.725 and the RQ2 ([1]; 72 hr, Laminarin alone) was 58.615. The RQ3 ([1]; 72 hr, Laminarin alone) was 21.699, the RQ mean ([1]; 72 hr, Laminarin alone) was 33.346 and the RQ1 ([2]; 12 hr, Laminarin + virus) was 12.523. For the same substance, the RQ2 ([2]; 12 hr, Laminarin + virus) was 0.9104, the RQ3 ([2]; 12 hr, Laminarin + virus) was 10.299 and the RQ mean ([2]; 12 hr, Laminarin + virus) was 10.642. For the same substance, the RQ1 ([2]; 12 hr, Laminarin alone) was 0.9931, the RQ2 ([2]; 12 hr, Laminarin alone) was 0.9090 and the RQ3 ([2]; 12 hr, Laminarin alone) was 0.7654. The RQ mean ([2]; 12 hr, Laminarin alone) was 0.8892, the RQ1 ([2]; 24 hr, Laminarin + virus) was 1.250 and the RQ2 ([2]; 24 hr, Laminarin + virus) was 1.754. It also gave an RQ3 ([2]; 24 hr, Laminarin + virus) of 1.545, an RQ mean ([2]; 24 hr, Laminarin + virus) of 1.516 and an RQ1 ([2]; 24 hr, Laminarin alone) of 1.744. The RQ2 ([2]; 24 hr, Laminarin alone) was 1.728, the RQ3 ([2]; 24 hr, Laminarin alone) was 1.516 and the RQ mean ([2]; 24 hr, Laminarin alone) was 1.662. The RQ1 ([2]; 48 hr, Laminarin + virus) was 13.802, the RQ2 ([2]; 48 hr, Laminarin + virus) was 15.313 and the RQ3 ([2]; 48 hr, Laminarin + virus) was 21.904. For the same substance, the RQ mean ([2]; 48 hr, Laminarin + virus) was 17.006, the RQ1 ([2]; 48 hr, Laminarin alone) was 15.231 and the RQ2 ([2]; 48 hr, Laminarin alone) was 15.784. For the same substance, the RQ3 ([2]; 48 hr, Laminarin alone) was 37.709, the RQ mean ([2]; 48 hr, Laminarin alone) was 22.908 and the RQ1 ([2]; 72 hr, Laminarin + virus) was 35.424. For the same substance, the RQ2 ([2]; 72 hr, Laminarin + virus) was 26.180, the RQ3 ([2]; 72 hr, Laminarin + virus) was 29.297 and the RQ mean ([2]; 72 hr, Laminarin + virus) was 30.301. It also gave an RQ1 ([2]; 72 hr, Laminarin alone) of 25.807, an RQ2 ([2]; 72 hr, Laminarin alone) of 30.148 and an RQ3 ([2]; 72 hr, Laminarin alone) of 26.311. The RQ mean ([2]; 72 hr, Laminarin alone) was 27.422.
